Data published in patent publication US8080644B2, “Oligonucleotide analogues” (Exiqon A/S, priority 1997, dated 2011).
Y = bicyclic LNA-type thymidine monomer of structure Y; d = 2'-deoxy (DNA)

Experiments:
[1] = test system: 5′-d(AAAAAAAAAAAAAA)-3′; assay: Tm of duplex (spectrophotometric melting curves); format: binding; details: vs 5′-d(AAAAAAAAAAAAAA)-3′; 10 mM Na2HPO4 pH 7.0, 100 mM NaCl, 0.1 mM EDTA
Description: (§1) Thermostability of oligonucleotides containing monomers of formula V, X, Y and Z^T, Z^U, Z^G, Z^C, Z^A, Z^MeC. The thermostability of the LNA modified oligonucleotides were determined spectrophotometrically using a spectrophotometer equipped with a thermoregulated Peltier element. Hybridisation mixtures of 1 ml were prepared containing either of 3 different buffers (10 mM Na2HPO4, pH 7.0, 100 mM NaCl, 0.1 mM EDTA; 10 mM Na2HPO4 pH 7.0, 0.1 mM EDTA; 3M tetramethylammoniumchlorid (TMAC), 10 mM Na2HPO4, pH 7.0, 0.1 mM EDTA) and equimolar (1 μM or 1.5 μM) amounts of the different LNA modified oligonucleotides and their complementary or mismatched DNA or RNA oligonucleotides. Identical hybridisation mixtures using the unmodified oligonucleotides were prepared as references. The Tm's were obtained as the first derivative of the melting curves. FIG. 2 illustrates the monomeric LNAs used. The nomenclature V, X, Y and Z^T, Z^U, Z^G, Z^C, Z^A, Z^MeC refer to structures V, X, Y and Z of FIG. 2. In the tables, the nucleobases of the LNA monomers are indicated. Furthermore, for the thio and amino variants of the LNA structure Z of the last two tables, the nomenclature used is, e.g., Z^TS and Z^TNH, respectively.

[2] = test system: 5′-(AAAAAAAAAAAAAA)-3′; assay: Tm of duplex (spectrophotometric melting curves); format: binding; details: vs RNA 5′-(AAAAAAAAAAAAAA)-3′; 10 mM Na2HPO4 pH 7.0, 100 mM NaCl, 0.1 mM EDTA
Description: as §1

[3] = biological target: exonuclease free Klenow fragment DNA polymerase I (EFK) (Escherichia coli, UniProt P00582, D355A/E357A); details: 500 μM LNA NTP, 2 units EFK, 37° C., 3 min
Description: A primer extension assay was used to evaluate the LNA NTP's (see Example 123), ribonucleotides, as substrates for exonuclease free Klenow fragment DNA polymerase I (EFK). The assay used a ^33P 5′ end labelled 15mer primer hybridised to one of four different 24mer templates. The sequences of the primer and templates are (LNA monomer in bold):
One picomole ^33P labelled primer was hybridised to 2 picomoles of template in ×2 Klenow buffer. To this was added either 4 μM dNTPαS or 500 μM LNA NTP or a mixture of 4 μM dNTPαS and 500 μM LNA NTP. Two units of EFK DNA polymerase was added to each reaction. 2 mU inorganic pyrophosphatase was added to each of the reactions. Primer plus template plus enzyme controls were also carried out. All reactions were carried out in a total volume of 20 μl. The reactions were incubated at 37° C. for 3 min. Reactions were then stopped by the addition of 10 μl formamide EDTA stop solution. Reaction products were separated on a 19% polyacrylamide 7M urea gel and the product fragments sized by comparison with a ^33P labelled 8 to 32 base oligonucleotide ladder after exposure to Kodak Biomax autoradiography film.

[4] = test system: Nras amplicons (Nras 910, Nras 600, Nras 200); assay: Capture of Nras PCR amplicons by immobilised probes; format: binding, human; details: native amplicons; 1 pmol probe per well
Description: Three DIG labelled amplicons from Nras sequence (ref.: Nucleic Acid Research, 1985, Vol. 13, No. 14, p 52-55) were generated by PCR amplification as follows:
PCR reaction mixture for Nras amplicons: 2.3 μl human placental genomic DNA (440 ng/μl), 50 μl 10×PCR buffer (without MgCl2 Perkin Elmer), 30 μl 25 mM MgCl2, 50 μl dNTP-mix (2 mM dATP, dCTP, dGTP and 1.8 mM dTTP), 10 μl 1 mM Dig-11-dUTP, 10 μl 25 μM forward primer, 10 μl 25 μM reverse primer, 5 μl 5 U/μl AmpliTaq Gold (Perkin Elmer) and water ad 500 μl. PCR reaction: The above mixture was made for all the Nras PCR products. The only difference being reverse primer 910 bp, 600 bp or 200 bp added once at a time. The PCR mixtures were aliquoted into ten PCR tubes each and cycled in a Perkin Elmer 9600 at the following conditions: 95° C. 3 min; 55° C. 2 min, 72° C. 3 min, 95° C. 1 min (30 cycles); 55° C. 2 min, 72° C. 10 min and 4° C. soak. 10 μl from each PCR reaction was analysed on a standard agarose gel and the expected fragments of approximately 910 bp, 600 bp and 200 bp were observed. Assay conditions: Wells of a streptavidin coated micro-titer plate (Boehringer Mannheim; binding capacity of 20 pmol biotin per well) were incubated for 1 hour in 5×SSCT (0.75 M NaCl, 75 mM citrate, pH 7.0, 0.1% Tween 20) at 37° C. with either 1 pmol of DNA Nras Cap A (biotin-5′-TTCCACAGCACAA-3′) (SEQ ID NO:37), LNA/DNA Nras Cap A (biotin-5′-TTCCACAGCACAA-3′) (SEQ ID NO:38), LNA Nras Cap A (biotin-5′-TTCCACAGCACAA-3′) (SEQ ID NO:39), DNA Nras Cap B (biotin-5′-AGAGCCGATAACA-3′) (SEQ ID NO:40), LNA/DNA Nras Cap B (biotin-5′-AGAGCCGATAACA-3′) (SEQ ID NO:41) or LNA Nras Cap B (biotin-5′-AGAGCCGATAACA-3′) (SEQ ID NO:42); LNA nucleosides in bold. The Nras Cap A capture probes capture amplicons Nras 910, Nras 600 and Nras 200. Nras Cap B capture probes capture specific amplicons Nras 910 and Nras 600. After incubation with the different capture probes, the wells were washed in 5×SSCT and 5 μl native or denatured (95° C. 5 min and 10 min on ice) DIG-labelled amplicons (Nras 910, Nras 600 or Nras 200) in 95 μl 1×SSCT (0.15 M NaCl, 15 mM citrate, pH 7.0, 0.1% Tween 20) were added per well and incubated for 1 hour at 37° C. The wells were washed three times in phosphate buffered saline (1×PBST, 0.15 M Nat, pH 7.2, 0.05% Tween 20) and incubated 30 min at 37° C. with 200 μl peroxidase labelled anti-DIG antibodies (Boehringer Mannheim, diluted 1:1000 in 1×PBST). Finally the wells were washed three times in 1×PBST and assayed for peroxidase activity by adding 100 μl of substrate solution (0.1 M citrate-phosphate buffer pH 5.0, 0.66 mg/ml ortho-phenylenediamine dihydrochloride, 0.012% H2O2) the reaction was stopped after 9 min by adding 100 μl 0.5 M H2SO4 and diluted 4 times in H2SO4 before the absorbance at 492 nm was read in a micro-titer plate reader. […] We conclude that LNA modified oligos containing mixed LNA nucleosides (A, T, G or C LNA nucleosides) function efficiently in sequence specific capture of PCR amplicons when immobilised on a solid surface. We further conclude that LNA offers a means to construct capture probes that will function efficiently in amplicon capture without prior denaturation i.e. capture by strand displacement. This ability facilitates a significant simplification of current amplicon detection formats based on DNA.

[5] = biological target: Exonuclease III (Escherichia coli, UniProt P09030)

Compound | Tm (° C.) Na2HPO4/NaCl/EDTA [1] | Tm (° C.) Na2HPO4/NaCl/EDTA [2] | capture of specific amplicons without prior denaturation [4] | also measured
5′-d(TTTTTTTTTTTTTT)-3′ (SEQ ID NO: 129): partly modified poly-T with monomer Y (sugars from the 5' end d7 Y1 d6, backbone not given here) | 36 °C | 37 °C |  | 
5′-d(TTTTTTTTTTTTTT)-3′ (SEQ ID NO: 132): partly modified poly-T with monomer Y (sugars from the 5' end d6 Y2 d6, backbone not given here) | 35 °C | 37 °C |  | 
5′-d(TTTTTTTTTTTTTT)-3′ (SEQ ID NO: 135): partly modified poly-T with monomer Y (sugars from the 5' end d6 Y1 d1 Y1 d5, backbone not given here) | 35 °C | 36 °C |  | 
5′-d(TTTTTTTTTTTTTT)-3′ (SEQ ID NO: 138): partly modified poly-T with monomer Y (sugars from the 5' end d5 Y4 d5, backbone not given here) | 32 °C | 33 °C |  | 
5′-d(TTTTTTTTTTTTTT)-3′ (SEQ ID NO: 141): partly modified poly-T with monomer Y (sugars from the 5' end ddddYdYdYdYddd, backbone not given here) | 36 °C | 36 °C |  | 
5′-d(TTTTTTTTTTTTTT)-3′ (SEQ ID NO: 144): fully modified poly-T oligonucleotide of structure Y (sugars from the 5' end Y13 d1, backbone not given here) | 58 °C | 58 °C |  | 
Nc1ncnc2c1ncn2[C@@H]1O[C@@]2(COP(=O)(O)OP(=O)(O)OP(=O)(O)O)CO[C@@H]1[C@@H]2O [LNA ATP] |  |  |  | incorporation into a DNA strand [3]: efficiently incorporated to give the +1 product
Nc1ccn([C@@H]2O[C@@]3(COP(=O)(O)OP(=O)(O)OP(=O)(O)O)CO[C@@H]2[C@@H]3O)c(=O)n1 [LNA CTP] |  |  |  | incorporation into a DNA strand [3]: efficiently incorporated to give the +1 product on Template 4
Nc1nc2c(ncn2[C@@H]2O[C@@]3(COP(=O)(O)OP(=O)(O)OP(=O)(O)O)CO[C@@H]2[C@@H]3O)c(=O)[nH]1 [LNA GTP] |  |  |  | incorporation into a DNA strand [3]: able to produce the +1 product with efficient extension of the primer
O=c1ccn([C@@H]2O[C@@]3(COP(=O)(O)OP(=O)(O)OP(=O)(O)O)CO[C@@H]2[C@@H]3O)c(=O)[nH]1 [LNA UTP] |  |  |  | incorporation into a DNA strand [3]: specifically incorporated as a “T”
DNA Nras Cap A: biotin-5′-TTCCACAGCACAA-3′ (SEQ ID NO:37), DNA capture probe (DNA, 5' {Biotin}, backbone not given here) [reference compound] |  |  | do not capture the specific amplicons at all | 
DNA Nras Cap B: biotin-5′-AGAGCCGATAACA-3′ (SEQ ID NO:40), DNA capture probe (DNA, 5' {Biotin}, backbone not given here) [reference compound] |  |  | do not capture the specific amplicons at all | 
LNA Cap B: biotin-5′-AGAGCCGATAACA-3′ (SEQ ID NO:42), spiked with 12 LNA nucleosides (12 LNA nucleosides, positions not given here, 5' biotin) |  |  | capture very efficiently the specific amplicons without prior denaturation | 
LNA Nras Cap A: biotin-5′-TTCCACAGCACAA-3′ (SEQ ID NO:39), spiked with 12 LNA nucleosides (LNA nucleosides spiked in, positions not given here, 5' biotin) |  |  | capture very efficiently the specific amplicons without prior denaturation | 
LNA/DNA Nras Cap A: biotin-5′-TTCCACAGCACAA-3′ (SEQ ID NO:38), spiked with 4 LNA nucleosides (LNA nucleosides spiked in, positions not given here, 5' biotin) |  |  | capture the same amplicons with a lower efficiency | 
LNA/DNA Nras Cap B: biotin-5′-AGAGCCGATAACA-3′ (SEQ ID NO:41), spiked with 4 LNA nucleosides (LNA nucleosides spiked in, positions not given here, 5' biotin) |  |  | capture the same amplicons with a lower efficiency | 
P2: 5′-GC ATG TGC TGG AGA T-3′ (SEQ ID NO: 11), DNA primer (DNA GCATGTGCTGGAGAT; DNA, backbone and methylation of C not given here) [reference compound] |  |  |  | full length product left after the 5 minute incubation ([5]; 10 Units Exonuclease III, 37° C., 5 min, primer hybridised to template): 20%; full length band, % of the signal ([5]; in the absence of the enzyme): 99%
